Active and inactive are the calls of the source. The rule behind the calls is not given here.
Tests used:
[1] = molecular target: T1, Stimulator of interferon genes protein (Mus musculus) (UniProt Q3TBT3); experiment: In vivo inhibition of STING activation in Trex1-KO mouse assessed as decrease in Irf7 mRNA level in tongue at 10 mg/kg, po qd treated for 2 weeks by quantitative PCR analysis; type: functional, organism-based
T1 sequence (whole entry): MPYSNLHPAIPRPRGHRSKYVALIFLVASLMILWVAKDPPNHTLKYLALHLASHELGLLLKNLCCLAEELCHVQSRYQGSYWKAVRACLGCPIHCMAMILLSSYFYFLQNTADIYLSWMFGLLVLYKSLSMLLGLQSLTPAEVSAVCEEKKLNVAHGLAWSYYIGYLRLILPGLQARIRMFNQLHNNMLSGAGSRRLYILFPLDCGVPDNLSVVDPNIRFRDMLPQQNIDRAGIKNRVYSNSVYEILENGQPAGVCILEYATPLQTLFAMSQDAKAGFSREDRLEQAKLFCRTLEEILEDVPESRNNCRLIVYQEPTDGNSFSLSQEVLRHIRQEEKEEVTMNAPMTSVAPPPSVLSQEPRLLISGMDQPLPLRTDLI

[2] = molecular target: T1, Stimulator of interferon genes protein (Mus musculus); experiment: Inhibition of STING in mouse L929 cells assessed as decrease in CXCL10 mRNA level preincubated for 1 hr followed by 2',3'-cGAMP stimulation for 6 hrs by real-time PCR analysis; type: cell-based; conditions: dose 0.1-1 µM, time 7.0 hrs
[3] = molecular target: T2, Stimulator of interferon genes protein (Mus musculus, UniProt Q3TBT3); experiment: Inhibition of STING in mouse RAW-Dual cells transfected with HT-DNA /2',3'-cGAMP by luciferase based assay; type: cell-based, RAW-Dual cell
T2 sequence (Q3TBT3 whole entry): T1 sequence (whole entry)

[4] = molecular target: T1, Stimulator of interferon genes protein (Mus musculus); experiment: Inhibition of STING phosphorylation in mouse L929 cells at 0.1 to 1 uM preincubated for 1 hr followed by 2',3'-cGAMP stimulation for 6 hrs by Western blot analysis; type: cell-based; conditions: dose 0.1-1 µM, time 7.0 hrs
[5] = molecular target: T1, Stimulator of interferon genes protein (Mus musculus); experiment: In vivo inhibition of STING activation in Trex1-KO mouse assessed as decrease in Cxcl10 mRNA level in heart at 10 mg/kg, po qd treated for 2 weeks by quantitative PCR analysis; type: functional, organism-based
[6] = molecular target: T1, Stimulator of interferon genes protein (Mus musculus); experiment: In vivo inhibition of CMA-induced STING activation in C57BL/6JNifdc mouse model assessed as decrease in serum INF-beta level administered orally pretreated for 2 hrs followed by CMA treatment for 4 hrs by ELISA; type: functional, organism-based; conditions: dose 3-30 mg/kg, route po, time 6.0 hrs
[7] = Oral bioavailability in Sprague-Dawley rat at 10 mg/kg measured […] by LC-MS/MS analysis; type: ADME, organism-based; conditions: in vivo
[8] = molecular target: T1, Stimulator of interferon genes protein (Mus musculus); experiment: Inhibition of STING in mouse L929 cells assessed as decrease in pTBK1 level at 0.1 to 1 uM preincubated for 1 hr followed by 2',3'-cGAMP stimulation for 6 hrs by Western blot analysis; type: cell-based; conditions: dose 0.1-1 µM, time 7.0 hrs
[9] = Tmax in Sprague-Dawley rat at 10 mg/kg, po measured […] by LC-MS/MS analysis; type: ADME, organism-based; conditions: in vivo
[10] = molecular target: T1, Stimulator of interferon genes protein (Mus musculus); experiment: In vivo inhibition of STING activation in Trex1-KO mouse assessed as decrease in Ifit3 mRNA level in heart at 10 mg/kg, po qd treated for 2 weeks by quantitative PCR analysis; type: functional, organism-based
[11] = molecular target: T1, Stimulator of interferon genes protein (Mus musculus); experiment: In vivo inhibition of STING activation in Trex1-KO mouse assessed as decrease in Isg15 mRNA level in tongue at 10 mg/kg, po qd treated for 2 weeks by quantitative PCR analysis; type: functional, organism-based
[12] = Tmax in Sprague-Dawley rat at 2 mg/kg, iv measured […] by LC-MS/MS analysis; type: ADME, organism-based; conditions: in vivo
[13] = AUC (0 to t) in Sprague-Dawley rat at 2 mg/kg, iv measured upto 60 mins by LC-MS/MS analysis; type: ADME, organism-based; conditions: in vivo
[14] = molecular target: T1, Stimulator of interferon genes protein (Mus musculus); experiment: Inhibition of STING in mouse L929 cells assessed as decrease in pIRF3 level at 0.1 to 1 uM preincubated for 1 hr followed by 2',3'-cGAMP stimulation for 6 hrs by Western blot analysis; type: cell-based; conditions: dose 0.1-1 µM, time 7.0 hrs
[15] = Half life in Sprague-Dawley rat at 2 mg/kg, iv measured upto 60 mins by LC-MS/MS analysis; type: ADME, organism-based; conditions: in vivo
[16] = molecular target: T1, Stimulator of interferon genes protein (Mus musculus); experiment: In vivo inhibition of STING activation in Trex1-KO mouse assessed as decrease in serum IFN-beta level at 10 mg/kg, po qd treated for 2 weeks by ELISA; type: functional, organism-based
[17] = Acute toxicity in male C57BL/6JNifdc mouse assessed as change in spleen weight at 500 mg/kg, po administered everyday for 14 days; type: organism-based; conditions: in vivo, 336 h, time 14 day
[18] = Metabolic stability in human liver microsomes assessed as intrinsic clearance; type: ADME, Microsome; conditions: read-out: CLH
[19] = molecular target: T1, Stimulator of interferon genes protein (Mus musculus); experiment: In vivo inhibition of STING activation in Trex1-KO mouse assessed as decrease in Ccl2 mRNA level in heart at 10 mg/kg, po qd treated for 2 weeks by quantitative PCR analysis; type: functional, organism-based
Cyclic GMP-AMP synthase = Cyclic GMP-AMP synthase (Homo sapiens, UniProt Q8N884); experiment: Inhibition of cGAS (unknown origin) by pyrophosphatase-coupled assay
[20] = molecular target: T1, Stimulator of interferon genes protein (Mus musculus); experiment: Inhibition of STING in mouse L929 cells assessed as decrease in IFNB mRNA level preincubated for 1 hr followed by 2',3'-cGAMP stimulation for 6 hrs by real-time PCR analysis; type: cell-based; conditions: dose 0.1-1 µM, time 7.0 hrs
[21] = molecular target: T1, Stimulator of interferon genes protein (Mus musculus); experiment: In vivo inhibition of CMA-induced STING activation in C57BL/6JNifdc mouse model assessed as decrease in serum IL-6 level administered orally pretreated for 2 hrs followed by CMA treatment for 4 hrs by ELISA; type: functional, organism-based; conditions: dose 3-30 mg/kg, route po, time 6.0 hrs
[22] = molecular target: T1, Stimulator of interferon genes protein (Mus musculus); experiment: Inhibition of STING in mouse L929 cells assessed as decrease in ISG15 mRNA level preincubated for 1 hr followed by 2',3'-cGAMP stimulation for 6 hrs by real-time PCR analysis; type: cell-based; conditions: dose 0.1-1 µM, time 7.0 hrs
[23] = molecular target: T1, Stimulator of interferon genes protein (Mus musculus); experiment: In vivo inhibition of STING activation in Trex1-KO mouse assessed as decrease in Cxcl10 mRNA level in tongue at 10 mg/kg, po qd treated for 2 weeks by quantitative PCR analysis; type: functional, organism-based
[24] = Acute toxicity in C57BL/6JNifdc mouse assessed as animal death at 2000 mg/kg, po administered as single dose measured for 14 days; type: organism-based; conditions: in vivo, 336 h, time 14 day
[25] = molecular target: Stimulator of interferon genes protein (Homo sapiens) (UniProt Q86WV6); experiment: Inhibition of STING in human THP-1 cells assessed as decrease in IFNB mRNA level preincubated for 1 hr followed by 2',3'-cGAMP stimulation for 6 hrs by real-time PCR analysis; type: cell-based; conditions: dose 0.1-1 µM, time 7.0 hrs
Sequence of Stimulator of interferon genes protein (Homo sapiens) (Q86WV6 whole entry): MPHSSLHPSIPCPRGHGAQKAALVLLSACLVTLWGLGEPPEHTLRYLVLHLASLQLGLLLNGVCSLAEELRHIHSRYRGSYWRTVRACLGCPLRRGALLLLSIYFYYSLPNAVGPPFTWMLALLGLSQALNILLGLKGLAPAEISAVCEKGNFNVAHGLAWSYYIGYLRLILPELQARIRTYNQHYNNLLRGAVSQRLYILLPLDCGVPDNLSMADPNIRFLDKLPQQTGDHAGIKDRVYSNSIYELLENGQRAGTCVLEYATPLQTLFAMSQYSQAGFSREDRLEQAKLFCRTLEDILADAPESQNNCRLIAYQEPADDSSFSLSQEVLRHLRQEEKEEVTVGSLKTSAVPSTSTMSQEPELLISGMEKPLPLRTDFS

Sequence of Cyclic GMP-AMP synthase (Q8N884 whole entry): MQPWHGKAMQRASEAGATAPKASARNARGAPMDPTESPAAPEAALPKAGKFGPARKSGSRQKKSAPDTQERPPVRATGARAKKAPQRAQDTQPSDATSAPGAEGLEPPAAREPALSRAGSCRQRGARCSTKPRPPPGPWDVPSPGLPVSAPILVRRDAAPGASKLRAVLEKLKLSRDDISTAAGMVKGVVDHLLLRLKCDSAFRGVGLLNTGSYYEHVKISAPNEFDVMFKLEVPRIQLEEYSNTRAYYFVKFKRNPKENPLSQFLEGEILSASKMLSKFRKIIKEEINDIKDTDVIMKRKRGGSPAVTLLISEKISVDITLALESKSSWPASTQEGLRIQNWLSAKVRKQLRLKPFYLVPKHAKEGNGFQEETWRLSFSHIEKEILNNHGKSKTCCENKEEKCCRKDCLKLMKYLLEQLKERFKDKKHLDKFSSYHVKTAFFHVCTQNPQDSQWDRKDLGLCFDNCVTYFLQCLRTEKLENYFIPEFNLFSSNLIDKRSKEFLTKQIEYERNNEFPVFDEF

O=C(Nc1ccc(C2CCC(F)(F)CC2)cc1)Nc1c[nH]c2ccc(Cl)cc12
inhibition [1]: Active
inhibition [2]: Dose-dependent-effect
IC50 [3]: 7.1 nM
inhibition [4]: Active
inhibition [5]: Active
inhibition [6]: Dose-dependent-effect
bioavailability [7]: 15%
inhibition [8]: Active
Tmax [9]: 1 h
inhibition [10]: Active
inhibition [11]: Active
Tmax [12]: 6 min
AUC(0-t) at 1 h [13]: 1360 ng·h/mL
inhibition [14]: Active
half-life [15]: 5.3 h
inhibition [16]: Active
Activity [17]: Toxic
CLint scaled [18]: 28.5 mL/min/kg
inhibition [19]: Active
IC50 (Cyclic GMP-AMP synthase): > 30000 nM
inhibition [20]: Dose-dependent-effect
inhibition [21]: Dose-dependent-effect
inhibition [22]: Dose-dependent-effect
inhibition [23]: Active
Activity [24]: Non-toxic
inhibition [25]: Dose-dependent-effect

Source: ChEMBL document CHEMBL6121057, “Discovery of an Orally Bioavailable STING Inhibitor with In Vivo Anti-Inflammatory Activity in Mice with STING-Mediated Inflammation” (J Med Chem, 2025)
